“And” between values parts separate entries of the source, which are not always exact repeats. Equal entries are not always repeated. “Also recorded” adds a separate entry of the source. Square brackets hold non-standard residues; d marks the D form. Peptide text beside a SMILES is read from it. Nspe(4-Br) = C[C@H](NCC(=O)O)c1ccc(Br)cc1; N(tridecyl)Gly = CCCCCCCCCCCCCNCC(=O)O; Nspe = C[C@H](NCC(=O)O)c1ccccc1; Nlys = NCCCCNCC(=O)O
Key:
[1] = test system: Leishmania donovani intracellular amastigotes; experiment: Intracellular amastigote clearance in infected RAW 264.7 macrophages (Giemsa staining, microscopy); format: cell-based; design: key to Effect on intracellular amastigotes: *: Good; **: Better; ***: Best; conditions: 10 μM peptoid, infected RAW 264.7 cells; for Effect on intracellular amastigotes by Giemsa staining (number, size, count): vs untreated control, 24 h or 4 h; for Effect on intracellular amastigotes: Giemsa staining, grade
Protocol: To evaluate the inhibitory effect of different peptoids on intracellular amastigotes, RAW 264.7 cells were infected with logarithmic phase promastigotes. Briefly, RAW 264.7 cells (10^5 cells/well) were seeded in 24‐well plates with round sterile coverslips and allowed to adhere to the coverslip for 24 h at 37 °C at 5% CO2 DMEM media supplemented with 10% FBS. Adherent macrophages were infected with L. donovani promastigotes at 1 : 10 (macrophage: promastigotes) for 6 h. Co‐infected cells were washed with PBS three times and incubated for a further 24 h for infection establishment. After 24 h, media were removed and again washed with FBS‐free DMEM followed by peptoid treatment. Ten μM of different peptoids were added to the co‐infected cells and incubated for 4 h at 37 °C at 5% CO2. After 4 h, peptoid‐treated co‐infected cells were washed with PBS, fixed with 100% methanol, and stained with diluted Giemsa stain (1 : 10) (HiMedia, Mumbai, India). The parasite clearance status of peptoids was determined by counting the number of the parasites using the Leica LAS core microscope system by counting 100 cells per coverslip.
Fig. 2 Giemsa staining of intracellular amastigotes in macrophage 264.7 cells after treatment with different peptoids at 10 μM concentrations. Untreated amastigotes (A), sample treated with TM 1 (B), TM 2 (C), TM 3 (D), TM 4 (E), TM 5 (F), TM 7 (G), TM 9 (H), and TM 10 (I). Red arrow points to the amastigotes form of Leishmania donovani parasite. Scale bar represents […].

[2] = test system: Leishmania donovani promastigotes (Bob strain); format: cell-based; conditions: 4 h; for Reduction of promastigote viability: at 3 μM, MTT, vs untreated cells
Protocol: Promastigotes of bob L. donovani were harvested in the log phase, and parasite inhibition was determined through 3‐(4,5‐dimethylthiazol‐2‐yl)‐2,5‐diphenyl‐tetrazolium bromide (MTT) methods using twofold dilution techniques. Briefly, promastigote density of 2 × 10^6 cells was taken, and different peptoid dilutions were added (0.187–3 μM) in a total volume of 100 μL. Percentage parasite viability was evaluated at 4 h at 25 °C using MTT (Sigma‐Aldrich). Parasite viability rate (%) = [OD of test sample/OD of untreated sample] × 100.
All experiments were carried out in triplicate and repeated at least three times independently (biological replicates), and the figures shown are representative of these experiments. IC50 was calculated using GRAPHPAD PRISM 6.0 software. The data were analyzed using Student's t‐test for comparison of two groups, and data values were expressed as mean ± standard deviation (SD). Significant differences were determined and designated with asterisks as follows: *P < 0.05; **P < 0.01; ***P < 0.001; and ****P < 0.0001.
Fig. 1 Antileishmanial activity of peptoids against Leishmania donovani promastigotes. Early‐logarithmic‐phase promastigotes of L. donovani bob strain were treated with different peptoids at different concentrations (0–3 μM) for 4 h. Negative control was considered 100% of cell viability (untreated) and positive control (Triton X treated). Cellular viability was assessed by MTT assay, and the IC50 values were calculated using GRAPHPAD PRISM 6.0. Error bars represent SD N = 3 and n = 3.

RAW 264.7 cells = experiment: Cytotoxicity against RAW 264.7 cells (MTT); format: cell-based, murine; conditions: for Host cell viability: 20 µM
Protocol: The cytotoxicity of different peptoids against RAW 264.7 cells was assessed by the MTT method following a published protocol. Briefly, murine macrophages were seeded in a 96‐well plate using DMEM supplemented with 10% FBS maintained at 37 °C and 5% CO2 for 24 h. Next, different concentrations of peptoids (5–80 μM) were added and incubated for 24 h followed by the addition of MTT for 2 h and solubilization of formazene crystals with DMSO addition. Percentage cell viability was calculated relative to the peptoid untreated sample.
Fig. 6 Percentage of living RAW 264.7 cells after incubation with different concentrations of peptoids. RAW 264.7 macrophage cells were incubated with peptoid for 24 h. […] The working concentration of 10 μM of peptoids caused only 50% or lower cytotoxicity in RAW 264.7 cells. Cell viability was determined by MTT assay, and data based on three experiments are represented by mean ± SD.

## CCCCCCCCCCCCCNCC(=O)N(CCCCN)CC(=O)N(CC(=O)N(CC(=O)N(CCCCN)CC(=O)N(CC(=O)N(CC(N)=O)[C@@H](C)c1ccc(Br)cc1)[C@@H](C)c1ccccc1)[C@@H](C)c1ccc(Br)cc1)[C@@H](C)c1ccccc1 [TM10] (H-[N(tridecyl)Gly][Nlys][Nspe][Nspe(4-Br)][Nlys][Nspe][Nspe(4-Br)]-NH2)
[1]
  Effect on intracellular amastigotes by Giemsa staining (number, size, count): reduction in number and size of amastigotes; also recorded: significantly reduced their count
  Effect on intracellular amastigotes: ***
[2]
  IC50: 1.54 µM

## C[C@@H](c1ccc(Br)cc1)N(CC(N)=O)C(=O)CN(C(=O)CN(CCCCN)C(=O)CN(C(=O)CN(C(=O)CNCCCCN)[C@@H](C)c1ccccc1)[C@@H](C)c1ccccc1)[C@@H](C)c1ccccc1 [TM3] (H-[Nlys][Nspe][Nspe][Nlys][Nspe][Nspe(4-Br)]-NH2)
[1]
  Effect on intracellular amastigotes: *
[2]
  IC50: 4.6 µM
RAW 264.7 cells
  Host cell viability: no toxicity

## C[C@@H](c1ccccc1)N(CC(N)=O)C(=O)CN(C(=O)CN(CCCCN)C(=O)CN(C(=O)CN(C(=O)CNCCCCN)[C@@H](C)c1ccccc1)[C@@H](C)c1ccccc1)[C@@H](C)c1ccccc1 [TM7] (H-[Nlys][Nspe][Nspe][Nlys][Nspe][Nspe]-NH2)
[1]
  Effect on intracellular amastigotes by Giemsa staining (number, size, count): reduction in number and size of amastigotes; also recorded: significantly reduced their count
  Effect on intracellular amastigotes: **
[2]
  IC50: 3.03 µM
  Reduction of promastigote viability: ≥ 50%
RAW 264.7 cells
  Host cell viability: no toxicity

## C[C@@H](c1ccc(Br)cc1)N(CC(N)=O)C(=O)CN(C(=O)CN(CCCCN)C(=O)CN(C(=O)CN(C(=O)CNCCCCN)[C@@H](C)c1ccccc1)[C@@H](C)c1ccc(Br)cc1)[C@@H](C)c1ccccc1 [TM2] (H-[Nlys][Nspe][Nspe(4-Br)][Nlys][Nspe][Nspe(4-Br)]-NH2)
[1]
  Effect on intracellular amastigotes: *
[2]
  IC50: 1.4 µM
  Reduction of promastigote viability: ≥ 50%
RAW 264.7 cells
  Host cell viability: more than 50%

## C[C@@H](c1ccccc1)N(CC(N)=O)C(=O)CN(C(=O)CN(CCCCN)C(=O)CN(C(=O)CN(C(=O)CN(CCCCN)C(=O)CN(C(=O)CN(C(=O)CN(CCCCN)C(=O)CN(C(=O)CN(C(=O)CNCCCCN)[C@@H](C)c1ccccc1)[C@@H](C)c1ccccc1)[C@@H](C)c1ccccc1)[C@@H](C)c1ccccc1)[C@@H](C)c1ccccc1)[C@@H](C)c1ccccc1)[C@@H](C)c1ccccc1 [TM1] (H-[Nlys][Nspe][Nspe][Nlys][Nspe][Nspe][Nlys][Nspe][Nspe][Nlys][Nspe][Nspe]-NH2)
[1]
  Effect on intracellular amastigotes by Giemsa staining (number, size, count): reduction in number and size of amastigotes; also recorded: reduces the amastigote count
  Effect on intracellular amastigotes: ***
[2]
  Reduction of promastigote viability: ≥ 50%
RAW 264.7 cells; RAW 264.7 cells, 10 μM, 24 h, MTT
  Reduction in host cell viability: ~ 40% and 40%

— paper PMC9989931, “Membrane‐acting biomimetic peptoids against visceral leishmaniasis” (FEBS Open Bio, 2023)
